In PMC4051630, “A Comparison of Protein Kinases Inhibitor Screening Methods Using Both Enzymatic Activity and Binding Affinity Determination” (PLoS ONE, 2014):

Assays:
Test in all cases: Differential Scanning Fluorimetry (DSF) Tm shift
Assay type in all cases: binding
[1] = biological target: T1, FAK2 Catalytic Domain (Homo sapiens, UniProt Q14289); conditions: 2 µM protein, 10 µM inhibitor, average of 3 experiments, each in duplicate
T1 construct: For all of them, we expressed and purified the catalytic domain separately; His-tag; made in house; host or cells: Escherichia coli
T1 sequence (Q14289 425-683 limits assumed): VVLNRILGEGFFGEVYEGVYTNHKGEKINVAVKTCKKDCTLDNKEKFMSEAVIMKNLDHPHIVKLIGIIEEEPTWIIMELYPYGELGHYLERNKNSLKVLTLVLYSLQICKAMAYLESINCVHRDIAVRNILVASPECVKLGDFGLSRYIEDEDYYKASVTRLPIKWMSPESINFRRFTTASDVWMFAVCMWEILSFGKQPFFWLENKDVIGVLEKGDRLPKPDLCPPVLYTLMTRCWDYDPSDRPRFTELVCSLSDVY

[2] = biological target: T2, CHK2 Catalytic Domain (Homo sapiens, UniProt O96017); conditions: 2 µM protein, 10 µM inhibitor, average of 3 experiments, each in duplicate
T2 construct: For all of them, we expressed and purified the catalytic domain separately; His-tag; made in house; host or cells: Escherichia coli
T2 sequence (O96017 220-486 limits assumed): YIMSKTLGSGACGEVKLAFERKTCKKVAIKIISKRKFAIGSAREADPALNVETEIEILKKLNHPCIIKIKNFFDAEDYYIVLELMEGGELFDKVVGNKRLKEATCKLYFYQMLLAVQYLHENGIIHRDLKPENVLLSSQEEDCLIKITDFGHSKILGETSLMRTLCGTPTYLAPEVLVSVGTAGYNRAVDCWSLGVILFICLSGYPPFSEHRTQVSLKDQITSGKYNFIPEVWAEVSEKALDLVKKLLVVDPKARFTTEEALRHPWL

[3] = biological target: T3, CDK2 + Cyclin A (Homo sapiens, UniProt P24941); conditions: CDK2 + Cyclin A; 2 µM protein, 10 µM inhibitor; average of 3 experiments, each in duplicate
T3 construct: CDK2 (P24941); 1–299; His-tag; made in house; host or cells: Escherichia coli

[4] = biological target: T4, STK3 Catalytic Domain (Homo sapiens, UniProt Q13188); conditions: 2 µM protein, 10 µM inhibitor, average of 3 experiments, each in duplicate
T4 construct: For all of them, we expressed and purified the catalytic domain separately; His-tag; made in house; host or cells: Escherichia coli
T4 sequence (Q13188 27-278 limits assumed): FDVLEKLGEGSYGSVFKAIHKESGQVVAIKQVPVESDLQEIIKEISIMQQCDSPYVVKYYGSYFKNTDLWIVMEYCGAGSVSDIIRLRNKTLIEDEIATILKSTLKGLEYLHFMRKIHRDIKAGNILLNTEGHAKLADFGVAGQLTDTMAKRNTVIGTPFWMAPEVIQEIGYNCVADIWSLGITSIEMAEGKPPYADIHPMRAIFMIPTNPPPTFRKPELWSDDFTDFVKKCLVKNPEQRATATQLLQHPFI

[5] = biological target: T5, FES Catalytic Domain+SH2 (Homo sapiens, UniProt P07332); conditions: 2 µM protein, 10 µM inhibitor, average of 3 experiments, each in duplicate
T5 construct: for 8, we also made a longer version containing one or more additional domains; His-tag; made in house; host or cells: Escherichia coli
T5 sequence (P07332 448-822 limits assumed): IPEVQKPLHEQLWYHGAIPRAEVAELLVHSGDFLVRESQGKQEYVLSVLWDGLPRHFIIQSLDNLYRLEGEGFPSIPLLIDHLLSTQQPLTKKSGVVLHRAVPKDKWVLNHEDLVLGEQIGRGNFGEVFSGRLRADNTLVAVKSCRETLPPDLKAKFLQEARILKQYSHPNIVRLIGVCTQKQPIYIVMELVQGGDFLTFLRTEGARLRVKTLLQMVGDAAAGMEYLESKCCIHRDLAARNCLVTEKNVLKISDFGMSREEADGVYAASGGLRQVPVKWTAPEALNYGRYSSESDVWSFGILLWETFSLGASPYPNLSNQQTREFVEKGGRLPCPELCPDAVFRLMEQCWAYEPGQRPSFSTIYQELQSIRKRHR

[6] = biological target: T6, PAK7 Catalytic Domain (Homo sapiens, UniProt Q9P286); conditions: 2 µM protein, 10 µM inhibitor, average of 3 experiments, each in duplicate
T6 construct: For all of them, we expressed and purified the catalytic domain separately; His-tag; made in house; host or cells: Escherichia coli
T6 sequence (Q9P286 449-700 limits assumed): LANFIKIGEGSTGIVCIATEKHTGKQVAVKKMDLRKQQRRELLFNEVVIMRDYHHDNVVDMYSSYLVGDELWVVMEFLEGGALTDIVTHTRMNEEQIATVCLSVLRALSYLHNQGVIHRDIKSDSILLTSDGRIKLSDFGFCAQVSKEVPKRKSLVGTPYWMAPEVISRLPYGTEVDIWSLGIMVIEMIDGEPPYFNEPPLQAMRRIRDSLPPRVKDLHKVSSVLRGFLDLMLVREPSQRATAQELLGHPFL

[7] = biological target: T7, FES Catalytic Domain (Homo sapiens, UniProt P07332); conditions: 2 µM protein, 10 µM inhibitor, average of 3 experiments, each in duplicate
T7 construct: For all of them, we expressed and purified the catalytic domain separately; His-tag; made in house; host or cells: Escherichia coli
T7 sequence (P07332 561-822 limits assumed): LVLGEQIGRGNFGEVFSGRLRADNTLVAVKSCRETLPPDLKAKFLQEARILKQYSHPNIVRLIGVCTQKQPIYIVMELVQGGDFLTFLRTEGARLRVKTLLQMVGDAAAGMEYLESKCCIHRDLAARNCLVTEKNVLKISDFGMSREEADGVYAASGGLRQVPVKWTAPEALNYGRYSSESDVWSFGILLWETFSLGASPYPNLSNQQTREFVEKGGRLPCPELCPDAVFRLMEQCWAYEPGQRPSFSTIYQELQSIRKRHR

[8] = biological target: T8, STK3 Catalytic domain+SARAH (Homo sapiens, UniProt Q13188); conditions: 2 µM protein, 10 µM inhibitor, average of 3 experiments, each in duplicate
T8 construct: for 8, we also made a longer version containing one or more additional domains; His-tag; made in house; host or cells: Escherichia coli
T8 sequence (Q13188 1-491): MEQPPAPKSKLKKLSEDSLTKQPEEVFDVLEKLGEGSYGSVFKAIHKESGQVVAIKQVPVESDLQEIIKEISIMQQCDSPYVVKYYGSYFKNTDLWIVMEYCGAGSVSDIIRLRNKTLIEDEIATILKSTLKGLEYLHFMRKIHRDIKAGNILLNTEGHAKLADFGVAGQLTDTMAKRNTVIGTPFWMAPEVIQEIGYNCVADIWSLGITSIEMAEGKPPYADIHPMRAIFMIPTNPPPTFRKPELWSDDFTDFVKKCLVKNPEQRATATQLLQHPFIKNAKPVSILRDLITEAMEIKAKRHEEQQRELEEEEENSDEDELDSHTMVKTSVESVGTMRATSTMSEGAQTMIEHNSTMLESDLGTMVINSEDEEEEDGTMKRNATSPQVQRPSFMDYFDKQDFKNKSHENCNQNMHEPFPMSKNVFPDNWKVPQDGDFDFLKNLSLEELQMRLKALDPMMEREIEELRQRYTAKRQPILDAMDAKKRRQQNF

[9] = biological target: T9, PAK4 Catalytic Domain (Homo sapiens, UniProt O96013); conditions: 2 µM protein, 10 µM inhibitor, average of 3 experiments, each in duplicate
T9 construct: For all of them, we expressed and purified the catalytic domain separately; His-tag; made in house; host or cells: Escherichia coli
T9 sequence (O96013 321-572 limits assumed): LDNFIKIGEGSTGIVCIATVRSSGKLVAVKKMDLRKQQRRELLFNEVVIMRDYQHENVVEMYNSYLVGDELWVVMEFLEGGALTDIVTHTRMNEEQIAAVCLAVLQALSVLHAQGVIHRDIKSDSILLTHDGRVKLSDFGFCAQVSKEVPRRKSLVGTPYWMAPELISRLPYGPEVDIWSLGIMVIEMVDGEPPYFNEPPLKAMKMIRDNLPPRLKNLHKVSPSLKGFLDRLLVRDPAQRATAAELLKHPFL

[10] = biological target: T10, PAK4 Catalytic Domain+PBD (Homo sapiens, UniProt O96013); conditions: 2 µM protein, 10 µM inhibitor, average of 3 experiments, each in duplicate
T10 construct: for 8, we also made a longer version containing one or more additional domains; His-tag; made in house; host or cells: Escherichia coli
T10 sequence (O96013 whole entry, the tested form may be a part): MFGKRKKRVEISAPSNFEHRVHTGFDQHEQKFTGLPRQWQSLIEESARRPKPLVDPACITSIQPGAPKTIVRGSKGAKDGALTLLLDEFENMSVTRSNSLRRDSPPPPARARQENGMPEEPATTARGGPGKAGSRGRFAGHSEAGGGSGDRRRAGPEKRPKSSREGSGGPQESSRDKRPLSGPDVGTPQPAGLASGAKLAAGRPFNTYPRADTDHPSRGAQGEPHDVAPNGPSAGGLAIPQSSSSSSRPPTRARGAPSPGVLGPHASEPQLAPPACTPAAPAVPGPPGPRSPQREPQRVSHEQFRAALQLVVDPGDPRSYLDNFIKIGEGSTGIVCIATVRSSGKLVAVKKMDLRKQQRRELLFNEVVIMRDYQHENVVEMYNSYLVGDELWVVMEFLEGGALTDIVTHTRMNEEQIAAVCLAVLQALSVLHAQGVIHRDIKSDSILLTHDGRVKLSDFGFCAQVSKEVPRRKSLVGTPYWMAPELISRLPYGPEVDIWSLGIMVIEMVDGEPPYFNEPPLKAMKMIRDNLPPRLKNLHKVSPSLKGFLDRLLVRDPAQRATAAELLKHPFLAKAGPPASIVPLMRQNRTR

[11] = biological target: T11, DMPK Catalytic Domain (Homo sapiens, UniProt Q09013); conditions: 2 µM protein, 10 µM inhibitor, average of 3 experiments, each in duplicate
T11 construct: For all of them, we expressed and purified the catalytic domain separately; His-tag; made in house; host or cells: Escherichia coli
T11 sequence (Q09013 71-339 limits assumed): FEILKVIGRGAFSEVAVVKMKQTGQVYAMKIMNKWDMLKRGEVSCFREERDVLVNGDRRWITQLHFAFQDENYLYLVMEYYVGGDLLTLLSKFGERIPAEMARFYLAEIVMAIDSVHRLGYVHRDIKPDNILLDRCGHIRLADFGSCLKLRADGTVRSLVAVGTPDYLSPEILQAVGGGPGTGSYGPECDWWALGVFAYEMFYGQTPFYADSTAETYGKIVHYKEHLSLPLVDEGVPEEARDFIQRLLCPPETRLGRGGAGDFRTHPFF

[12] = biological target: SRC Catalytic Domain+SH2+SH3 (Homo sapiens, UniProt P12931); conditions: 2 µM protein, 10 µM inhibitor, average of 3 experiments, each in duplicate
Chain of SRC Catalytic Domain+SH2+SH3 (P12931 84-523 limits assumed): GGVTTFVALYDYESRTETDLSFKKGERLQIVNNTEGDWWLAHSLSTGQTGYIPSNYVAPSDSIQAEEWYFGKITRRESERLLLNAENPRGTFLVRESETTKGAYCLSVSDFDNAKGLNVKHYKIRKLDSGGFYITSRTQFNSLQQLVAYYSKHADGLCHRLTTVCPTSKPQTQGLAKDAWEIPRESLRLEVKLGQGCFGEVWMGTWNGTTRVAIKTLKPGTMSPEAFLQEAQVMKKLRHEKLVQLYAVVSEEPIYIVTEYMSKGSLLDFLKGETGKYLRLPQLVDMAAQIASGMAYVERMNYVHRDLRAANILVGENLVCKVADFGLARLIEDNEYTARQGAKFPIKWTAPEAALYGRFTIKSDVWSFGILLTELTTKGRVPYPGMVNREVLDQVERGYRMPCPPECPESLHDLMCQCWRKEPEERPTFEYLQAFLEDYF

[13] = biological target: SRC Catalytic Domain (Homo sapiens, UniProt P12931); set-up: For all of them, we expressed and purified the catalytic domain separately; His-tag; made in house; host or cells: Escherichia coli; conditions: 2 µM protein, 10 µM inhibitor, average of 3 experiments, each in duplicate
Chain of SRC Catalytic Domain (P12931 270-523 limits assumed): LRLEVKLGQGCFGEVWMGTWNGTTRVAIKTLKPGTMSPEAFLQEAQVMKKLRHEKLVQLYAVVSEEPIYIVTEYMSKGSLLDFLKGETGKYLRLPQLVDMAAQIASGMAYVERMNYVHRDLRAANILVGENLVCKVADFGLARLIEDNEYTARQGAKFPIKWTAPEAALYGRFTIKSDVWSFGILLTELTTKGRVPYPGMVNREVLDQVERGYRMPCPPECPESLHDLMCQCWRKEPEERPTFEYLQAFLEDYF

[14] = biological target: T12, CDK2 + Cyclin E (Homo sapiens, UniProt P24941); conditions: CDK2 + Cyclin E; 2 µM protein, 10 µM inhibitor; average of 3 experiments, each in duplicate
T12 construct: CDK2 (P24941); 1–299; His-tag; made in house; host or cells: Escherichia coli

[15] = biological target: T13, AKT3 Catalytic Domain (Homo sapiens, UniProt Q9Y243); conditions: 2 µM protein, 10 µM inhibitor, average of 3 experiments, each in duplicate
T13 construct: AKT3 (Q9Y243); CD; His-tag; made in house; host or cells: Escherichia coli
T13 sequence (Q9Y243 122-479): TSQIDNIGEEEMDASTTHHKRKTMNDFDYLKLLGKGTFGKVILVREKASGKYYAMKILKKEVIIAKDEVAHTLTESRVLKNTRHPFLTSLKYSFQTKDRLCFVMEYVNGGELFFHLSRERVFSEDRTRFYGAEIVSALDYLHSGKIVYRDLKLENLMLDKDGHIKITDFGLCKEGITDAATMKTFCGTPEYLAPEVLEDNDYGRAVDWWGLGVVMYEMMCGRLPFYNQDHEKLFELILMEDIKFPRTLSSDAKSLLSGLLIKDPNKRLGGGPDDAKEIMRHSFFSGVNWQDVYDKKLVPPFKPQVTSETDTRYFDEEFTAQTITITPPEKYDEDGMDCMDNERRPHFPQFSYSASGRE

Structure (SMILES) | Melting temperature (Tm) shift [1] [degrees Celcius] | Melting temperature (Tm) shift [2] [degrees Celcius] | Melting temperature (Tm) shift [3] [degrees Celcius] | Melting temperature (Tm) shift [4] [degrees Celcius] | Melting temperature (Tm) shift [5] [degrees Celcius] | Melting temperature (Tm) shift [6] [degrees Celcius] | Melting temperature (Tm) shift [7] [degrees Celcius] | Melting temperature (Tm) shift [8] [degrees Celcius] | Melting temperature (Tm) shift [9] [degrees Celcius] | Melting temperature (Tm) shift [10] [degrees Celcius] | Melting temperature (Tm) shift [11] [degrees Celcius] | Melting temperature (Tm) shift [12] [degrees Celcius] | Melting temperature (Tm) shift [13] [degrees Celcius] | Melting temperature (Tm) shift [14] [degrees Celcius] | Melting temperature (Tm) shift [15] [degrees Celcius]
CCn1cnc2c(Nc3cccc(Cl)c3)nc(N[C@H]3CCCC[C@H]3N)nc21 [Cdk1 Inhibitor, CGP74514A] | 1.9 | 1.8 | 4.4 | 1.3 | 0.7 | 5.4 | 1.6 | 1.2 | 5.6 | 8.1 | 1.4 | 1.3 | 1.2 | 3.7 | 0.0
Nc1cccc(-c2cc3c(Oc4cccc(O)c4)ncnc3[nH]2)c1 [GSK3b Inhibitor XII, TWS119] | 1.5 | 2.1 | 0.7 | 0.3 | 2.0 | 1.1 | 4.1 | 0.5 | 1.3 | 1.5 | 1.2 | 3.1 | 2.6 | 0.2 | 0.1
NC(=O)Nc1sc(-c2ccc(F)cc2)cc1C(N)=O [IKK-2 Inhibitor IV] | 1.2 | 3.6 | 0.7 | 2.8 | 0.5 | 1.3 | 1.5 | 1.6 | 1.5 | 2.4 | 1.8 | 1.0 | 1.2 | 0.4 | 0.1
NC(=O)Nc1cc(-c2ccccc2)sc1C(N)=O [IKK-2 Inhibitor XI] | 1.5 | 5.8 | 0.9 | 2.4 | 1.1 | 1.3 | 2.1 | 1.4 | 1.7 | 2.9 | 1.6 | 1.0 | 1.5 | 0.7 | 0.0

The next lines start with the values.

Melting temperature (Tm) shift [1] [degrees Celcius] | Melting temperature (Tm) shift [2] [degrees Celcius] | Melting temperature (Tm) shift [3] [degrees Celcius] | Melting temperature (Tm) shift [4] [degrees Celcius] | Melting temperature (Tm) shift [5] [degrees Celcius] | Melting temperature (Tm) shift [6] [degrees Celcius] | Melting temperature (Tm) shift [7] [degrees Celcius] | Melting temperature (Tm) shift [8] [degrees Celcius] | Melting temperature (Tm) shift [9] [degrees Celcius] | Melting temperature (Tm) shift [10] [degrees Celcius] | Melting temperature (Tm) shift [11] [degrees Celcius] | Melting temperature (Tm) shift [12] [degrees Celcius] | Melting temperature (Tm) shift [13] [degrees Celcius] | Melting temperature (Tm) shift [14] [degrees Celcius] | Melting temperature (Tm) shift [15] [degrees Celcius] | Structure (SMILES)
0.9 | 1.1 | 2.3 | 1.2 | 0.6 | 1.8 | 2.3 | 0.7 | 2.0 | 5.0 | 0.0 | 0.8 | 0.9 | 1.7 | 0.0 | CC(C)n1cnc2c(Nc3cccc(Cl)c3)nc(NCCO)nc21 [Compound 52]
1.8 | 1.9 | 0.7 | 0.7 | 1.4 | 1.8 | 3.3 | 1.2 | 1.7 | 0.5 | 1.2 | 0.5 | 0.6 | 0.5 | 0.2 | O=C(c1ccc(Nc2nccc(-c3cc4ccccc4s3)n2)cc1)N1CCC(N2CCCC2)CC1 [IKK Inhibitor VII]
1.4 | 3.6 | 0.8 | 2.4 | 0.7 | 1.3 | 1.8 | 2.0 | 1.3 | 2.5 | 1.4 | 1.1 | 1.3 | 0.2 | 0.0 | NC(=O)Nc1sc(-c2ccccc2)cc1C(N)=O [IKK-2 Inhibitor VI]
